Like-named read-outs stand apart in the source and are kept apart here. Where a SMILES comes first, the peptide text is derived from it. Bridges are numbered along the chain shown (N, C = ends).

One assay has as its target T1, rat NPR-A (Rattus norvegicus, UniProt P18910).
T1 construct: endogenous in cells; host or cells: rat PC12 cells
T1 sequence (P18910 29-1057): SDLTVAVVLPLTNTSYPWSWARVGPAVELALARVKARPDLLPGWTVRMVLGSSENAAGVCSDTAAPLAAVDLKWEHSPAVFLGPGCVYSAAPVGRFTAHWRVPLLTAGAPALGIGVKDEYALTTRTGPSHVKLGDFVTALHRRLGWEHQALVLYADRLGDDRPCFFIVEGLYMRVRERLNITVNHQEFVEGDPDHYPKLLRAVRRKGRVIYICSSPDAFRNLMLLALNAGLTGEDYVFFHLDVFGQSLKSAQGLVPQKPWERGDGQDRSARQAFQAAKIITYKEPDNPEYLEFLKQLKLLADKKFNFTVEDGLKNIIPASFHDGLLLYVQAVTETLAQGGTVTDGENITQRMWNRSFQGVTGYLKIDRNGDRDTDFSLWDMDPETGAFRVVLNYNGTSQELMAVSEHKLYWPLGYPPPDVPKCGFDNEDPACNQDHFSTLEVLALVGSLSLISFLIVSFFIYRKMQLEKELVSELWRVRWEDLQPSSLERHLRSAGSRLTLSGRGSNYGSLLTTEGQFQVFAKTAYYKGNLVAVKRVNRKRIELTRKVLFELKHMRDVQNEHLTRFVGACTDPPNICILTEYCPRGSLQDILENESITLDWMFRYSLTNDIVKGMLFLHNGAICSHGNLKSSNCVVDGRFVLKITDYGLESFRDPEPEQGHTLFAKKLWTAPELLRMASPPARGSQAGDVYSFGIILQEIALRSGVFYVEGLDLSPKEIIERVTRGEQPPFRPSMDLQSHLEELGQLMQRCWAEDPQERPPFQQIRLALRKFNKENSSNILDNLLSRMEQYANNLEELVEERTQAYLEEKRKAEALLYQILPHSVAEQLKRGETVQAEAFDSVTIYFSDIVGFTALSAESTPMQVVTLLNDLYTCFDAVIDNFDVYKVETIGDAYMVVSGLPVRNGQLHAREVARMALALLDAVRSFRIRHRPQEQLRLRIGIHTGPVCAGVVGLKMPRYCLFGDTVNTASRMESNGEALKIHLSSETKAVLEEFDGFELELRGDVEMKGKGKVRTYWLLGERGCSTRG
As to the kind of experiment: cGMP ALPHAscreen, cGMP production in PC12 cells. It counts as cell-based. The settings on record: for EC50: PC12 cells, cGMP ALPHAscreen. The protocol: NP activity can be determined by the effectiveness of the peptide to elicit cGMP production through NPR-A. The cGMP ALPHAscreen evaluates the ability of peptides to stimulate cGMP production in cells through a non-radioactive, homogenous, proximity assay which encompasses […]. […] In order to evaluate the potency of TNPa-e at rNPR-A, TNPa-e were evaluated using the cGMP ALPHAscreen in rat PC12 cells.
(§1) Cells were cultured at 5% CO2 and 37 °C. HEK 293 cells were cultured in high glucose DMEM (Gibco, Carlsbad, CA, USA) supplemented with 10% FBS, and 1% penicillin/streptomycin. HEK 293 cells were seeded in media lacking penicillin/streptomycin 24 to 48 h pre-transfection. PC12 cells were cultured in high glucose DMEM (Gibco) supplemented with 10% FBS and 1% penicillin/streptomycin.
(§2) The cGMP ALPHAscreen was performed using the ALPHAscreen Protein A detection kit and the biotinylated cGMP supplement (Perkin Elmer, Waltham, MA, USA) with rabbit anti-cGMP polyclonal antibody (Biovision, Mountain View, CA, USA). Cells were detached from the flask and the resulting pellet was resuspended in stimulation buffer (HBSS supplemented with 0.1% w/v BSA and 1 mM IBMX at 37 °C). Cells were added to a white 384-well Optiplate (Perkin Elmer, Waltham, USA) to 30,000 cells per well for HEK 293 cells and 10,000 cells per well for PC12 cells. Cells were incubated with different concentrations of test peptides (concentration range of 1 × 10^−5 to 1 × 10^−11 M in stimulation buffer) at 37 °C for 30 min. Cells were lysed with lysis buffer (1 M HEPES, 0.3% Tween-20, 1% BSA in H2O, pH 7.4). Then 5 μL acceptor-bead mix was added to each well under subdued lighting conditions, followed by 5 μL of donor-bead mix. Plates were incubated for ~12 h, slowly shaking at room temperature. After incubation, the ALPHAscreen signal was measured using an EnVision plate reader (Perkin Elmer). The standard curve consisted of cGMP in a concentration range of 1 × 10^−6 to 1 × 10^−12 M. All data points were acquired in triplicate and were analyzed using GraphPad Prism 5.0 software (GraphPad Software, Inc., San Diego, CA, USA).

In the next assay the target is T2, human NPR-A (Homo sapiens, UniProt P16066).
T2 construct: expressed in transfected cells; host or cells: HEK 293 cells, transient, Lipofectamine 2000
T2 sequence (P16066 33-1061): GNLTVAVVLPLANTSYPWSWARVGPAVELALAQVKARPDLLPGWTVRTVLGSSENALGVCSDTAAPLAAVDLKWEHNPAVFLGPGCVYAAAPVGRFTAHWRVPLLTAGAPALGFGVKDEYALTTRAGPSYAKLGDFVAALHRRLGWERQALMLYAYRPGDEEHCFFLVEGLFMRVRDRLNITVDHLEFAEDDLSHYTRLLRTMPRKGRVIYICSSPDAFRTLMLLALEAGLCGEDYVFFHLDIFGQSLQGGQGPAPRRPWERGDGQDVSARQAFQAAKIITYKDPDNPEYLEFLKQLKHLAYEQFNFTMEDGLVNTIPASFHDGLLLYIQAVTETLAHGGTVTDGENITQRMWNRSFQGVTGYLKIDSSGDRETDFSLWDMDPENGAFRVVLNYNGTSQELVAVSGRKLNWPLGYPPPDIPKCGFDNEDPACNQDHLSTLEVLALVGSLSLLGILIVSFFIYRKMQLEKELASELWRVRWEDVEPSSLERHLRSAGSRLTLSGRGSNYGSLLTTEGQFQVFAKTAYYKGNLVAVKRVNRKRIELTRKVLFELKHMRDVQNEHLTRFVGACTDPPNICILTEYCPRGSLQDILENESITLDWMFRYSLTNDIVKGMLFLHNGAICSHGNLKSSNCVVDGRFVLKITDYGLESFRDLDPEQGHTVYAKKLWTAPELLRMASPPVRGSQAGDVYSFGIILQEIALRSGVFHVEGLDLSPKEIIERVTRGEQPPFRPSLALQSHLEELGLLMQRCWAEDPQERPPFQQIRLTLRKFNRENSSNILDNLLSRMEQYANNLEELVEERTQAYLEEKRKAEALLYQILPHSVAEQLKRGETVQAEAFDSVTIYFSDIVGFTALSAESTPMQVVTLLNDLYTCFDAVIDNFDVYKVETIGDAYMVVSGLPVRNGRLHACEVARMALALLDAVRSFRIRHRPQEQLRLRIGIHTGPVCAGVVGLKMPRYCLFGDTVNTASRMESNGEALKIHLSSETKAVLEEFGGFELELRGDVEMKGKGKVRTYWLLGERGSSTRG
The assay is described as follows: cGMP ALPHAscreen, cGMP production in HEK 293 cells transiently overexpressing hNPR-A. The format is cell-based. The note with it: HEK 293 cells overexpressing hNPR-A; for Emax at 10 µM: HEK293, read-out: cGMP production, % of the maximum response (compared with DNP, hANP, hBNP); for EC50: 30 min at 37 °C, cGMP ALPHAscreen, three separate experiments in triplicate, read-out: hNPR-A EC50 (95% CI), potency to stimulate cGMP production. The protocol: as §1
HEK 293 cells were transfected using the lipofectamine 2000 transfection protocol (Invitrogen). Cells (95% confluence) were transfected with 45% pcDNA3.1/hNPR-A, 45% pcDNA3.1, and 10% pEGFP-NI to the optimal DNA concentration specified in the protocol. The co-transfection with pEGFP-NI plasmid allowed the determination of the transfection efficiency. This was assessed by the estimation of the number of GFP-expressing cells using an Olympus IX70 inverted fluorescence microscope. Transfected cells were used for assay purposes within 24 h.
as §2

Setting [1] is: 30 min at 37 °C, three to five separate experiments in triplicate, read-out: rNPR-A EC50 (95% CI), potency to stimulate cGMP production.

For the molecule `CC[C@H](C)[C@@H]1NC(=O)[C@H](Cc2c[nH]cn2)NC(=O)[C@H](CC(=O)O)NC(=O)[C@H](CC(C)C)NC(=O)[C@@H]2CCCN2C(=O)[C@H](CC(C)C)NC(=O)CNC(=O)[C@H](Cc2ccccc2)NC(=O)[C@@H](NC(=O)CNC(=O)[C@H](CC(=O)O)NC(=O)CNC(=O)[C@@H](NC(=O)[C@H](CCCCN)NC(=O)[C@@H]2CCCN2C(=O)[C@H](CC(=O)O)NC(=O)[C@@H](N)CO)[C@@H](C)CC)CSSC[C@@H](C(=O)N[C@@H](CC(N)=O)C(=O)N[C@@H](CCCNC(=N)N)C(=O)N2CCC[C@H]2C(=O)N[C@H](C(=O)N[C@@H](CCC(N)=O)C(=O)N[C@@H](CC(N)=O)C(=O)N[C@@H](CCCNC(=N)N)C(=O)N2CCC[C@H]2C(=O)N[C@@H](CCCCN)C(=O)N[C@@H](CCCCN)C(=O)O)C(C)C)NC(=O)CNC(=O)[C@H](CC(C)C)NC(=O)CNC(=O)[C@H](CO)NC(=O)[C@H](C(C)C)NC(=O)[C@H](CO)NC(=O)CNC1=O` [TNPb] (H-SDPKIGDGCFGLPLDHIGSVSGLGCNRPVQNRPKK-OH; disulfide 9-25), the EC50 was 1200 nM on rat NPR-A (setting [1]), over 1000 nM at rat NPR-A (read-out: EC50 at rNPR-A) and over 10000 nM at human NPR-A. The Emax at 10 µM at human NPR-A was about 30%.

Turning to `CC[C@H](C)[C@H](NC(=O)[C@H](CCCCN)NC(=O)[C@H](CO)NC(=O)[C@H](CC(=O)O)NC(=O)[C@@H](N)CO)C(=O)NCC(=O)N[C@@H](CC(=O)O)C(=O)NCC(=O)N[C@H]1CSSC[C@@H](C(=O)N[C@@H](CC(N)=O)C(=O)N[C@@H](CCCNC(=N)N)C(=O)N2CCC[C@H]2C(=O)N[C@H](C(=O)N[C@@H](CCC(N)=O)C(=O)N[C@@H](CC(N)=O)C(=O)N[C@@H](CCCNC(=N)N)C(=O)N2CCC[C@H]2C(=O)N[C@@H](CCCCN)C(=O)N[C@@H](CCCCN)C(=O)O)C(C)C)NC(=O)CNC(=O)[C@H](CC(C)C)NC(=O)CNC(=O)[C@H](CO)NC(=O)[C@H](C(C)C)NC(=O)[C@H](CO)NC(=O)CNC(=O)[C@H]([C@@H](C)CC)NC(=O)[C@H](Cc2c[nH]cn2)NC(=O)[C@H](CC(=O)O)NC(=O)[C@H](CC(C)C)NC(=O)[C@@H]2CCCN2C(=O)[C@H](CC(C)C)NC(=O)CNC(=O)[C@H](Cc2ccccc2)NC1=O` [TNPa] (H-SDSKIGDGCFGLPLDHIGSVSGLGCNRPVQNRPKK-OH; disulfide 9-25), the figures for the EC50 at rat NPR-A (setting [1]), at rat NPR-A (read-out: EC50 at rNPR-A) and at human NPR-A were 2020 nM, over 1000 nM and over 10000 nM, respectively. The Emax at 10 µM on human NPR-A was under 20%.

On to `CC[C@H](C)[C@@H]1NC(=O)[C@H](CCCNC(=N)N)NC(=O)[C@H](CC(=O)O)NC(=O)[C@H]([C@@H](C)CC)NC(=O)[C@@H]2CCCN2C(=O)[C@H](Cc2ccccc2)NC(=O)CNC(=O)[C@H](Cc2ccccc2)NC(=O)[C@@H](NC(=O)CNC(=O)[C@H](CC(N)=O)NC(=O)CNC(=O)[C@@H](NC(=O)[C@H](CCCCN)NC(=O)[C@@H]2CCCN2C(=O)[C@H](CC(=O)O)NC(=O)[C@@H](N)CO)[C@@H](C)CC)CSSC[C@@H](C(=O)N[C@@H](CC(N)=O)C(=O)N[C@@H](CCCNC(=N)N)C(=O)N[C@@H](CC(C)C)C(=O)N[C@H](C(=O)N[C@@H](CCC(N)=O)C(=O)N[C@@H](CC(N)=O)C(=O)N2CCC[C@H]2C(=O)N2CCC[C@H]2C(=O)N[C@@H](CCCCN)C(=O)N2CCC[C@H]2C(=O)N[C@H](C(=O)N[C@@H](CO)C(=O)NCC(=O)N[C@@H](CCC(=O)O)C(=O)N[C@@H](CO)C(=O)O)[C@@H](C)CC)C(C)C)NC(=O)CNC(=O)[C@H](CC(C)C)NC(=O)CNC(=O)[C@H](CO)NC(=O)[C@H](C(C)C)NC(=O)[C@H](CO)NC(=O)CNC1=O` [TNPd] (H-SDPKIGNGCFGFPIDRIGSVSGLGCNRLVQNPPKPISGES-OH; disulfide 9-25), for which the EC50 at rat NPR-A (setting [1]) was 18 nM; at human NPR-A, over 10000 nM. In addition, at rat NPR-A (rNPR-A (PC12) versus hNPR-A (HEK 293) cGMP potency), the “selectivity / difference in potency for rNPR-A over hNPR-A” value is listed as 560 fold. Besides, the Emax at 10 µM on human NPR-A was about 30%.
